Where a SMILES comes first, the peptide text is derived from it. The star is where a group is joined. Cbz = O=C(OCc1ccccc1)*; CH2F = FC*
What was measured:
[1] = system: mouse embryonic fibroblasts (MEFs); test: Mitochondrial membrane potential (DiOC6(3)) and ROS generation (2-HE) by FACS; type: cell-based; settings: 1 μM GT, 4 h; for effect on GT-induced ROS production: 15 mM scavenger
Method: (§1) Gliotoxin (GT) was purified from Penicillium terlikowskii as described [Waring, 1988]. For apoptosis induction, 4×10^5 MEFs were incubated with different concentrations of GT or staurosporine (Sigma) for 4 h and apoptosis assays were performed as described below. In some cases the general caspase inhibitor Ac-ZVAD-fmk (Bachem) or the ROS scavengers N-acetylcysteine (NAC) (Sigma) or MnTBAP (Calbiochem) were added as described [Pardo, 2004]. To test the inhibitory potency of Ac-ZVAD-.fmk, MBL-2. Fas cells were incubated with anti-Fas mAb Jo-2 (1 μg/ml) for 24 h in the presence or absence of 100 μM of the caspase inhibitor and cell death was analysed by trypan blue exclusion. Nuclei were stained with 10 μg/ml of Hoechst 33342 (Molecular Probes).
(§2) Phosphatidylserine (PS) exposure and propidium iodide (PI) uptake was analysed by FACS or fluorescence microscopy as described [Pardo, 2004] using the annexin V-FITC kit from BD Pharmingen. The mitochondrial membrane potential was measured with the fluorescent probe 3,3′-dihexyloxacarbocyanine iodide (DiOC6(3), Molecular Probes) and ROS generation with 2-hydroxiethidine (2-HE, Molecular Probes) as described [Pardo, 2004].

[2] = target: T1, Bak (Mus musculus, UniProt O08734); test: Conformational change of Bak (FACS, N-terminus-specific antibody); type: cell-based; settings: 4 h; for effect on GT-induced N-terminal opening of Bak: 100 μM Z-VAD.fmk or 15 mM NAC or MnTBAP
T1 construct: endogenous in cells; host or cells: SV40-transformed mouse embryonic fibroblasts (wt, Bid-/-; Bak-/-xBax-/- as negative control)
T1 sequence (O08734 1-209): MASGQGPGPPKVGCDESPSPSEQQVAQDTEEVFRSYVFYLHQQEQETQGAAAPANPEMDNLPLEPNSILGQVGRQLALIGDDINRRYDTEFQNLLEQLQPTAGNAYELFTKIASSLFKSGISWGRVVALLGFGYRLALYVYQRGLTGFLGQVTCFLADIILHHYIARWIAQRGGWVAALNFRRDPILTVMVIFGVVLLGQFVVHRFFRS
Method: (§3) MEFs were fixed in 4% PFA, permeabilized with 0.1% saponin in PBS/5% fetal calf serum (FCS) and incubated with 2 μg/ml rabbit polyclonal anti-Bak (NT, Upstate Biotechnology) 5 μg/ml rabbit polyclonal anti-Bax (NT, Upstate Biotechnology) or 5 μg/ml rabbit purified IgG (control). After two washes with 0.1% saponin in PBS, the cells were incubated with anti rabbit-FITC antibody in 0.1% saponin/PBS/5% FCS, washed twice in 0.1% saponin/PBS, resuspended in 1% PFA/PBS and analysed by FACS with a FACScan (BD) and CellQuest® software.

[3] = system: mouse embryonic fibroblasts (MEFs); test: Gliotoxin-induced apoptosis in MEFs: nuclear fragmentation (Hoechst 33342), PS exposure (annexin V-FITC) and PI uptake; type: cell-based; settings: 1 μM GT, 4 h
Method: as §1, §2

[4] = system: mouse embryonic fibroblasts (MEFs); test: Cell death (trypan blue exclusion) and cell detachment by microscopic inspection; type: cell-based
Method: as §1

[5] = system: caspase-3; test: Caspase-3 activation (FACS, antibody against the active form); type: cell-based, mouse; settings: 1 μM GT, 4 h; wt and Bax−/− MEFs
Method: Cells were fixed with 4% paraformaldehyde (PFA) and incubated with a monoclonal antibody against the active form of caspase-3 (clone C92605, BD Pharmingen). Following incubation with a FITC-labeled secondary antibody, the cells were analyzed by FACS as described [Pardo, 2004].

[6] = system: mouse embryonic fibroblasts (MEFs); test: Cytochrome c release on cells (FACS); type: cell-based; settings: 1 μM GT, 4 h
Method: (§4) Cytochrome c release was quantified by FACS analysis as recently described [Waterhouse, 2003]. Briefly, 1×10^6 of MEFs were mildly permeabilized with 25 μg/ml digitonin plus 100 mM KCl on ice for 5 min. This lead to the cellular loss of cytosolic cytochrome c. Cells were washed once with cold PBS, fixed in 4% PFA, permeabilized with 0.05% saponin and 3% BSA and then incubated with the anti-cytochrome c mAb 6H2.B4 (BD Pharmingen) or mouse IgG isotype control (Jackson) followed by anti-mouse-FITC secondary antibody (Jackson). The cells were resuspended in 100 μl PFA in PBS and analysed by FACS with a FACScan (BD) and CellQuest® software. For the analysis of the nuclear translocation of AIF, cells were fixed, mounted on poly-L-lysine coverslides and stained with a rabbit polyclonal antiAIF antibody (Sigma) as described [Pardo, 2001]. Afterwards the cells were analysed by confocal microscopy using a Leica SP2 confocal microscope and Imaris® software.

[7] = system: mouse embryonic fibroblasts (MEFs); test: Nuclear translocation of AIF (confocal microscopy); type: cell-based; settings: 1 μM GT, 4 h
Method: as §4

[8] = system: mitochondria isolated from MEFs or FDMs; test: Cytochrome c release from isolated mitochondria; type: biochemical, mouse
Method: 8×10^7 MEFs or FDMs were centrifuged and washed once in PBS. The cell pellets were resuspended in 500 μl MSH-Buffer (210 mM mannitol; 70 mM sucrose; 20 mM HEPES; 1 mM EDTA; pH 7,5; 100 μM PMSF; 400 ng/ml pepstatin; 10 μg/ml leupeptin; 10 μg/ml aprotinin and 5 μg/ml cytochalasin B). The resuspended cell pellet was incubated on ice for 15 min before the cells were broken by passaging 25 times through a 23-gauge needle. The lysate was centrifuged at 500×g for 5 min to remove cell debris and nuclei. A crude mitochondrial pellet was then obtained by centrifugation at 10,000×g for 15 min and resuspended in MSH-Buffer. The isolated mitochondria were incubated with different concentrations of GT (10 μM, 20 μM and 50 μM), or 40 nM of recombinant tBid as a positive control at 37° C. for 4 hr. Following incubation, the mitochondria were pelleted, and both, pellet and supernatant were tested for cytochrome c release by SDS-PAGE.

[9] = system: Fas-negative cells; test: GT-induced pro-apoptotic processes in Fas-negative cells (cell adhesion / cell death, neutral red); type: cell-based
Method: This pro-apoptotic activity may be inhibited by GT-inhibitors, e.g. anti-GT-antibodies. The degree of cell adhesion and/or cell death may be determined by standard methods. For example, the cells may be labelled with a suitable dye, e.g. neutral red, allowed to adhere and incubated subsequently with GT in the presence of a test compound. After an appropriate incubation time, the non-adherent cells may be removed and the remaining adherent cells and/or the removed cells may be determined. For example, the dye neutral red may be released from cells by […]/ethanol. Non-adherent cells equating with cell death may be quantitatively determined, e.g. with an optical detection method, preferably by measuring the absorbance at 540 nm according to standard methods, e.g. in a microplate reader.
Screening for antifungal agents capable of inhibiting the interaction between GT and Bak can be performed by means of the methylcholanthrene-induced cell line MC.Fas^−/− (date of deposition at DSMZ: 4 May 2006) stained with the vital dye Neutral Red. […] Cell loss equates with cell death resulting from GT-induced pro-apoptotic processes, and is quantified automatically by loss of absorbance at 540 nm using a microplate reader.

[10] = system: Bax; test: Conformational change of Bax (FACS, N-terminus-specific antibody); type: cell-based, mouse; settings: staurosporine 1 and 5 μM, 4 h, MEFs
Method: as §3

[11] = system: MBL-2.Fas cells; test: Anti-Fas mAb Jo-2 induced cell death (trypan blue exclusion), test of the caspase inhibitor; type: cell-based; settings: 1 μg/ml Jo-2, 24 h; 100 μM inhibitor
Method: as §1

[12] = 10, 20 or 50 μM GT, 4 h, 37° C.

## O=C(O)c1ccc(/C2=C3\C=CC(=N3)/C(c3ccc(C(=O)O)cc3)=c3/cc/c4[n]3[Mn]([Cl])[n]3c2ccc3/C(c2ccc(C(=O)O)cc2)=C2/C=CC(=N2)\C=4c2ccc(C(=O)O)cc2)cc1 [MnTBAP, Mn(III) tetrakis(4-benzoic acid)porphirin chloride]
[1]; wt MEFs
  effect on GT-induced ROS production: significantly reduced
[2]; wt MEFs, 1 μM GT
  effect on GT-induced N-terminal opening of Bak: unaffected

## CN1C(=O)[C@]23CC4=CC=C[C@H](O)[C@H]4N2C(=O)[C@@]1(CO)SS3 [GT, Gliotoxin]
[3]; wt MEFs
  apoptotic cells (PS exposed, annexin-V staining, without plasma membrane disruption): ~50%
[3]; wt MEFs, Hoechst 33342
  nuclear fragmentation: nuclear fragmentation in the majority
[3]; Bak−/− and Bak−/−×Bax−/− MEFs
  number of annexin-V/PI positive cells vs mock treated cells: did not
[3]; wt, Bak−/− (so in the source) and Bid−/− MEFs
  number of annexin-V/PI positive cells vs mock treated cells: significantly increased
[1]; wt, Bax−/− and Bid−/− MEFs
  ROS production: parallel increase
  mitochondrial membrane potential (Δψm): significant reduction
[4]; increasing amounts of GT, 4 h, Bak−/− and Bak−/−×Bax−/− MEFs, not wt or Bax−/−
  GT-mediated cell death (trypan blue exclusion): significantly reduced
[4]; increasing amounts of GT, 4 h, Bax- and/or Bak-deficient MEFs vs wt
  GT-induced loss of cell adherence: only marginally, if at all, diminished
[2]; 1 μM GT, wt MEFs
  N-terminal epitope exposure (conformational change) of Bak: readily induce N-terminal epitope exposure in Bak
[5]
  caspase-3 activation: significantly activated
[6]; Bak−/− or Bak−/−×Bax−/− MEFs
  mitochondrial cytochrome c: retained
[6]; wt and Bax−/− MEFs
  mitochondrial cytochrome c: reduced
[7]; Bak−/− and Bak−/−×Bax−/− MEFs
  localization of AIF: retained most of the AIF in the mitochondria
[7]; wt and Bax−/− MEFs
  cells with cytosolic localization and nuclear translocation of AIF: a high portion
[8]; [12]
  cytochrome c release from isolated mitochondria: dose-dependent manner
  cytochrome c release from isolated mitochondria compared with 40 nM recombinant tBid: as efficient as that induced by recombinant tBid
[8]; mitochondria from Bak−/− or Bak−/−×Bax−/− MEFs or FDMs
  cytochrome c release from isolated mitochondria: absent
[9]
  induction of pro-apoptotic processes resulting in loss of cell adhesion and cell death: dose-dependent manner

## CC(=O)N[C@@H](CS)C(=O)O [NAC, N-acetylcysteine]
[3]; wt MEFs, 15 mM NAC
  effect on GT-induced PS exposure and plasma membrane permeability: abrogated
[1]; wt MEFs, 15 mM NAC
  effect on GT-induced reduction of the mitochondrial Δψm: abrogated
[1]; wt MEFs
  effect on GT-induced ROS production: significantly reduced
[4]; wt MEFs, 1 μM GT, 4 h, NAC
  effect on GT-induced cell death (trypan blue staining): totally inhibited
  effect on GT-induced cell detachment: totally inhibited
[2]; wt MEFs, 1 μM GT
  effect on GT-induced N-terminal opening of Bak: unaffected
[6]; wt MEFs, 15 mM NAC
  effect on GT-induced cytochrome c release from mitochondria: greatly diminished
[7]; wt MEFs, 15 mM NAC
  effect on GT-induced AIF release from mitochondria: greatly diminished

## CN[C@@H]1C[C@H]2O[C@@](C)([C@@H]1OC)n1c3ccccc3c3c4c(c5c6ccccc6n2c5c31)C(=O)NC4 [staurosporine]
[2]; staurosporine 1 and 5 μM, MEFs
  activation of Bak: activates both Bax and Bak
[10]
  N-terminal conformational change of Bax: led to the expected N-terminal opening of Bax

## COC(=O)C[C@H](NC(=O)[C@H](C)NC(=O)[C@@H](NC(=O)OCc1ccccc1)C(C)C)C(=O)CF [Z-VAD.fmk] (Cbz-Val-Ala-Asp(OMe)-CH2F)
[3]; wt MEFs, 100 μM Z-VAD.fmk
  effect on GT-induced annexin-V/PI staining: reduced
[1]; wt MEFs, 100 μM Z-VAD.fmk
  effect on loss of the mitochondrial Δψm in GT-treated cells: did not prevent
[4]; wt MEFs, GT 4 h, Z-VAD.fmk
  effect on GT-induced cell death: reduced
[2]; wt MEFs, 1 μM GT
  effect on GT-induced N-terminal opening of Bak: unaffected
[6]; wt MEFs, 100 μM Z-VAD
  effect on GT-induced cytochrome c release: not blocked
[7]; wt MEFs, 100 μM Z-VAD
  effect on GT-induced AIF release: not blocked
[11]
  effect on apoptosis induced by the anti-Fas antibody Jo-2: blocked
